According to patent publication US7115651B2, “Macrocycles and uses thereof” (Sloan-Kettering Institute for Cancer Research, priority 2000, dated 2006):

Assays:
[1] = system: small cell lung cancer cell line with defective Rb function; experiment: inhibition of small cell lung cancer cells with defective Rb function; format: cell-based, human; details: for inhibition of small cell lung cancer cell line with defective Rb function / potency compared with 17-AGG in small cell lung cancer cell line with defective Rb function: FIG. 20
Description: (§1) The human cancer cell lines MCF7, BT474 and N417 were obtained from the American Type Culture Collection (Manassas, Va., USA) and maintained in a 1:1 mixture of DME:F12 supplemented with 2 mM glutamine, 50 U/mL penicillin, 50 U/mL streptomycin and 5% heat inactivated fetal bovie serum (Gemini Bioproducts) and incubated at 37° C. in 5% CO2.
(§2) Growth assays were performed by seeding 10000 cells (MCF7, BT474 or N417) per well in 6-well dishes and incubating for 24 h before drug treatment. Drugs or vehicle were administered as outlined for each experiment, and cells were incubated for the time periods depcited and then the number quantified by a Coulter counter.

KB cells = details: against KB cells; Isaka et al. 2002; cited from earlier work
P. falciparum = details: against P. falciparum; Isaka et al. 2002; cited from earlier work
HSP90 = experiment: binding of aigialomycin D to HSP90; details: compared with radicicol
[2] = system: breast cancer cell with wild type Rb; experiment: inhibition of breast cancer cells with wild type Rb; format: cell-based, human; details: FIG. 20
Description: as §1, §2

[3] = system: MCF7 cells (HER2 overexpressed, Rb positive); experiment: growth of MCF7 cells treated with radicicol and analogues; format: cell-based, human
Description: as §1, §2

[4] = system: Rb (retinoblastoma) positive cells; experiment: cell cycle effect in Rb positive cells; format: cell-based
Description: (§3) Cell cycle distribution was assayed according to Nusse et al. with a Becton Dickinson fluorescence-activated cell sorter and analyzed by a Cell Cycle Multi-cycle system (Phoenix Flow System, San Diego, Calif., USA).

Rb negative cells = experiment: cell cycle effect in Rb negative cells; format: cell-based
Description: as §3

HER2 = experiment: reduction of HER2 in MCF7 and BT474 cells (protein assay, anti-Her2 blot); format: cell-based, human; details: 0.5 μM through 5 μM
Description: The human cancer cell lines MCF7, BT474 and […] were obtained from the American Type Culture Collection (Manassas, Va., USA) and maintained in a 1:1 mixture of DME:F12 supplemented with 2 mM glutamine, 50 U/mL penicillin, 50 […] and 5% heat inactivated fetal bovie serum (Gemini Bioproducts) and incubated at 37° C. in 5% CO2. Cells were grown to 60-70% confluence and exposed to drugs or DMSO vehicle for the indicated time periods. Lysates were prepared using 5 mM Tris pH 7.4, 2% SDS and 10% glycerol lysis buffer. Protein concentration was determined using the BCA kit (Pierce Chemical Co.) according to the manufacturer's instructions. Clarified protein lysates (20-50 μg) were electrophoretically resolved on denaturing SDS-PAGE, transferred to ntirocellulose and probed with the following primary antibodies: anti-Her2 (C-18).

Question: For `C=CCNC1=C2C[C@@H](C)C[C@H](OC)[C@H](O)[C@@H](C)/C=C(\C)[C@H](OC(N)=O)[C@@H](OC)/C=C\C=C(/C)C(=O)NC(=CC1=O)C2=O` [17-AGG, 17-allylaminogeldanamycin], which “potency in cells with wild type Rb versus cells with defective Rb function” value ([1]; wild type Rb vs defective Rb) is on record?
Answer: much more potent against cells with wild type Rb than in cells with defective Rb function

Question: Which “antitumor activity IC50” value (KB cells) does the source give for `C[C@H]1C/C=C/[C@@H](O)[C@@H](O)CC/C=C/c2cc(O)cc(O)c2C(=O)O1` [Aigialomycin D] here?
Answer: 3.0 µg/mL

Question: What about the “antimalarial activity IC50” value (P. falciparum) of the same compound?
Answer: 6.6 µg/mL

Question: And the “binding to HSP90” value (HSP90)?
Answer: does bind to HSP90 (though significantly less so than radicicol (2))

Question: Which “inhibition of breast cancer cell with wild type Rb” value [2] does the source give for `C[C@@H]1C[C@H]2O[C@@H]2/C=C\C=C\C(=O)Cc2c(Cl)c(O)cc(O)c2C(=O)O1` [Radicicol] here?
Answer: potent inhibitors

Question: What about the “inhibition of small cell lung cancer cell line with defective Rb function” value [1] of the same compound?
Answer: potent inhibitors

Question: And the “potency compared with 17-AGG in small cell lung cancer cell line with defective Rb function” value [1]?
Answer: much more potent than 17-AGG

Question: And the “efficacy in side by side experiment with radicicol (growth of MCF7 cells, FIG. 19)” value [3]?
Answer: demonstrated efficacy

Question: What about the “cell cycle block in Rb positive cells” value [4] of the same compound?
Answer: clear G1 (growth) phase block

Question: What about the “cell cycle block in Rb negative cells” value (Rb negative cells) of the same compound?
Answer: blocked in the M (mitosis) phase

Question: Which results are given for `C[C@@H]1C[C@H]2C[C@@H]2/C=C\C=C\C(=O)Cc2c(Cl)c(O)cc(O)c2C(=O)O1` [cyclopropyl radicicol, Cycloproparadicicol]?
Answer: inhibition of breast cancer cell with wild type Rb [2]: potent inhibitors; inhibition of small cell lung cancer cell line with defective Rb function [1]: potent inhibitors; potency compared with 17-AGG in small cell lung cancer cell line with defective Rb function [1]: much more potent than 17-AGG; effectiveness in reducing HER2 compared with radicicol (HER2): at least as effective, if not better than radicicol

Question: With radicicol oxime [VII] as the compound, how does the “efficacy in side by side experiment with radicicol (growth of MCF7 cells, FIG. 19)” value [3] read?
Answer: demonstrated efficacy
